This is an account of results in patent publication US10160767B2 (Institute of Pharmacology and Toxicology Academy of …, priority 2014, dated 2018).

What is called melting point is the temperature of the solid-liquid transition. As a reminder, the solubility is how much of the substance goes into solution per volume. Low values mean little dissolved substance, high ones much dissolved substance. By IC50 is commonly meant the concentration that gives 50% inhibition.

SMILES strings stand for the structures. Structures can show the parent of a compound that is named as a salt.

The nature of data set [1]: Solubility test (Chinese Pharmacopoeia 2010, Part II). The class given is physicochemical. Conditions: water, thermodynamic from solid.
In data set [2] the test system is multi-drug resistant tumor cell line MES-SA. In words: Inhibition of drug-resistant tumor cell line, Cell Titer-Glo cell viability; therapeutic index against MRC5 cells. The class given is cell-based. Conditions: Homo sapiens, 72 h. As to the method: The activity of example compounds to multi-drug resistant tumor cell line MES-SA was evaluated.
Experimental materials: DMEM high-glucose cell culture media (Hyclone Company), fetal calf serum (FBS) (Gibco Company), penicillin and streptomycin were purchased from North China Pharmaceutical Co., Ltd, phosphate buffer saline (PBS) was purchased from Gibco Company, Cell Titer-Glo® cell viability detection reagent was purchased from Promega Company, pancreatin and dimethylsulfoxide (DMSO) were products of Sigma Company. MES-SA cell line (human uterine sarcoma cell line) was purchased from ATCC. MRC5 cell (human embryonic lung fibroblast) was purchased from ATCC.
(§1) The cells were inoculated on a 96-well plate with white wall and penetrative bottom (Costar) in amount of 5000 cells per well, cultured at condition of 37° C., 5% CO2 for 24 h. The compounds to be tested were dissolved with DMSO and diluted to 100 mM, to obtain mother liquids of the compounds.
DMEM culture solution containing 2% FBS was used to diluted the compounds, in which concentration gradients were 3, and concentration range was 100 μM to 0.046 μM. The compounds in various dilution degrees were added to the cultured cells on the 96-well plate, 100 μl per well. Culture was performed at 37° C., CO2 for 72 h, supernatant was discarded, and cell viability detection test was performed.
(§2) AfterCell Titer-Glo® reaction buffer solution was mixed with isometric substrate, the mixture was added to 96-well plate, 100 μl per well. Cell lysis was induced by horizontally shaking for 4 min. Reaction signal was stabilized by balancing at room temperature for 15 min. Chemiluminescence units in each well of the 96-well plate were detected by using chemiluminescence detector.
Inhibition rates at different dilution degrees of each compound were calculated according to chemiluminescence value of each well, and Origin 8.0 software was used for S-type curve fitting of each compound, and for calculating EC50 value. The ratio of EC50 value of compound for MRC5 cell to EC50 value of compound for MES-SA cell was used as therapeutic index for the compound.
(ATP-based viability assays read luminescence as a measure of living cells.)

The subject of a further data set is tumor cell A549. In words: Tumor cell inhibition, Cell Titer-Glo cell viability. To be noted: Homo sapiens, A549 cells, 72 h. The class given is cell-based. As to the method: The activities of example compounds to tumor cell A549 were evaluated.
Experimental materials: DMEM high-glucose cell culture media (Hyclone Company), fetal calf serum (FBS) (Gibco Company), penicillin and streptomycin were purchased from North China Pharmaceutical Co., Ltd, phosphate buffer saline (PBS) was purchased from Gibco Company, Cell Titer-Glo® cell viability detection reagent was purchased from Promega Company, pancreatin and dimethylsulfoxide (DMSO) were products of Sigma Company. A549 cell line (human lung adenocarcinoma cell line) was purchased from ATCC.
as §1
DMEM culture solution containing 2% FBS was used to diluted the compounds, in which concentration gradients were 3, and concentration range was 100 μM to 3 nM. The compounds in various dilution degrees were added to the cultured cells on the 96-well plate, 100 μl per well. Culture was performed at 37° C., CO2 for 72 h, supernatant was discarded, and cell viability detection test was performed.
as §2
Inhibition rates at different dilution degrees of each compound were calculated according to chemiluminescence value of each well, and Origin 8.0 software was used for S-type curve fitting of each compound, and for calculating EC50 value.

As for `CO[C@H]1C[C@@H]2CC[C@@H](C)[C@@](O)(O2)C(=O)C(=O)N2CCCC[C@H]2C(=O)O[C@H]([C@H](C)C[C@@H]2CC[C@@H](OC(=O)C[n+]3cccc(O)c3)[C@H](OC)C2)CC(=O)[C@H](C)/C=C(\C)[C@@H](OC(=O)C[n+]2cccc(O)c2)[C@@H](OC)C(=O)[C@H](C)C[C@H](C)/C=C/C=C/C=C/1C.[Br-].[Br-]` [Example 8, 31,42-O-carbonylmethyl-(3-hydroxy-pyridine bromide salt-1-yl)-rapamycin], the melting point fell in the range of 120 to 124 °C. Moreover, in data set [1], the solubility amounted to 0.1 mg/mL. Further, in data set [2], the IC50 was less than 0.046 µM. Besides, the IC50 in the data set with tumor cell A549 was 46 µM.
The compound `CO[C@H]1C[C@@H]2CC[C@@H](C)[C@@](O)(O2)C(=O)C(=O)N2CCCC[C@H]2C(=O)O[C@H]([C@H](C)C[C@@H]2CC[C@@H](O)[C@H](OC)C2)CC(=O)[C@H](C)/C=C(\C)[C@@H](OC(=O)C[n+]2cscc2C)[C@@H](OC)C(=O)[C@H](C)C[C@H](C)/C=C/C=C/C=C/1C.[Br-]` [Example 3, 31-O-carbonylmethyl-(4-methyl-thiazole bromide salt-3-yl)-rapamycin] returned a melting point of 130 to 132 °C. Further, the half-maximal inhibitory concentration (IC50) in data set [2] is less than 0.046 µM. Further, the midpoint of inhibition in the data set with tumor cell A549, the IC50, lay at 3.04 µM.
Compound `CO[C@H]1C[C@@H]2CC[C@@H](C)[C@@](O)(O2)C(=O)C(=O)N2CCCC[C@H]2C(=O)O[C@H]([C@H](C)C[C@@H]2CC[C@@H](OC(=O)C[n+]3cccc(C)c3)[C@H](OC)C2)CC(=O)[C@H](C)/C=C(\C)[C@@H](OC(=O)C[n+]2cccc(C)c2)[C@@H](OC)C(=O)[C@H](C)C[C@H](C)/C=C/C=C/C=C/1C.[Br-].[Br-]` [Example 9, 31,42-O-carbonylmethyl-(3-methyl-pyridine bromide salt-1-yl)-rapamycin] returned a melting point of 159 to 162 °C. The same compound returned a solubility in data set [1] of 47 mg/mL. Further, the IC50 in data set [2] was 7.21 µM. The compound further came in with an IC50 in the data set with tumor cell A549 of 25.1 µM.
Turning to `CO[C@H]1C[C@@H]2CC[C@@H](C)[C@@](O)(O2)C(=O)C(=O)N2CCCC[C@H]2C(=O)O[C@H]([C@H](C)C[C@@H]2CC[C@@H](O)[C@H](OC)C2)CC(=O)[C@H](C)/C=C(\C)[C@@H](OC(=O)C[n+]2csc(C)c2C)[C@@H](OC)C(=O)[C@H](C)C[C@H](C)/C=C/C=C/C=C/1C` [Example 6, 31-O-carbonylmethyl-(4,5-dimethyl-thiazole bromide salt-3-yl)-rapamycin], the figures for the IC50 (in data set [2]; in the data set on tumor cell A549) were less than 0.046 µM and 52.3 µM, respectively.
Compound `CO[C@H]1C[C@@H]2CC[C@@H](C)[C@@](O)(O2)C(=O)C(=O)N2CCCC[C@H]2C(=O)O[C@H]([C@H](C)C[C@@H]2CC[C@@H](OC(=O)C[n+]3cscc3C)[C@H](OC)C2)CC(=O)[C@H](C)/C=C(\C)[C@@H](OC(=O)C[n+]2cscc2C)[C@@H](OC)C(=O)[C@H](C)C[C@H](C)/C=C/C=C/C=C/1C.[Br-].[Br-]` [Example 1, 31,42-O-carbonylmethyl-(4-methyl-thiazole bromide salt-3-yl)-rapamycin] came in with a melting point of 142 to 145 °C. In data set [1], this compound showed a solubility of 34.5 mg/mL. Further, the IC50 in data set [2] was less than 0.046 µM. In addition, in the data set on tumor cell A549, it took 17.4 µM to reach half-maximal inhibition (IC50).
As to `CO[C@H]1C[C@@H]2CC[C@@H](C)[C@@](O)(O2)C(=O)C(=O)N2CCCC[C@H]2C(=O)O[C@H]([C@H](C)C[C@@H]2CC[C@@H](O)[C@H](OC)C2)CC(=O)[C@H](C)/C=C(\C)[C@@H](OC(=O)C[n+]2ccccc2)[C@@H](OC)C(=O)[C@H](C)C[C@H](C)/C=C/C=C/C=C/1C.[Br-]` [Example 16, 31-O-carbonylmethyl-(pyridine bromide salt-1-yl)-rapamycin], the melting point was 140 to 142 °C. This compound had an IC50 in data set [2] of less than 0.046 µM. Besides, the concentration for half-maximal inhibition (IC50) with tumor cell A549 was determined as 57.7 µM.
The like results for `CO[C@H]1C[C@@H]2CC[C@@H](C)[C@@](O)(O2)C(=O)C(=O)N2CCCC[C@H]2C(=O)O[C@H]([C@H](C)C[C@@H]2CC[C@@H](O)[C@H](OC)C2)CC(=O)[C@H](C)/C=C(\C)[C@@H](OC(=O)C[n+]2cccc(C)c2)[C@@H](OC)C(=O)[C@H](C)C[C@H](C)/C=C/C=C/C=C/1C.[Br-]` [Example 15, 31-O-carbonylmethyl-(3-methyl-pyridine bromide salt-1-yl)-rapamycin] were, in that order, 138 to 140 °C, less than 0.046 µM and 52.7 µM.
Turning to `CO[C@H]1C[C@@H]2CC[C@@H](C)[C@@](O)(O2)C(=O)C(=O)N2CCCC[C@H]2C(=O)O[C@H]([C@H](C)C[C@@H]2CC[C@@H](OC(=O)C[n+]3ccccc3)[C@H](OC)C2)CC(=O)[C@H](C)/C=C(\C)[C@@H](OC(=O)C[n+]2ccccc2)[C@@H](OC)C(=O)[C@H](C)C[C@H](C)/C=C/C=C/C=C/1C.[Br-].[Br-]` [Example 7, 31,42-O-carbonylmethyl-(pyridine bromide salt-1-yl)-rapamycin], the melting point was in the range of 140 to 142 °C. In data set [1], this compound registered a solubility of 85 mg/mL. The same compound registered an IC50 in data set [2] of less than 0.046 µM. In the data set with tumor cell A549, this compound came in with an IC50 of 46.7 µM.
`CO[C@H]1C[C@@H]2CC[C@@H](C)[C@@](O)(O2)C(=O)C(=O)N2CCCC[C@H]2C(=O)O[C@H]([C@H](C)C[C@@H]2CC[C@@H](OC(=O)C[n+]3cccc(O)c3)[C@H](OC)C2)CC(=O)[C@H](C)/C=C(\C)[C@@H](O)[C@@H](OC)C(=O)[C@H](C)C[C@H](C)/C=C/C=C/C=C/1C.[Br-]` [Example 12, 42-O-carbonylmethyl-(3-hydroxy-pyridine bromide salt-1-yl)-rapamycin] showed a melting point of 146 to 148 °C. This compound displayed an IC50 in data set [2] of less than 0.046 µM. For the same compound, in the data set on tumor cell A549, the midpoint of inhibition, the IC50, lay at 51.5 µM.
In data set [1], `CO[C@H]1C[C@@H]2CC[C@@H](C)[C@@](O)(O2)C(=O)C(=O)N2CCCC[C@H]2C(=O)O[C@H]([C@H](C)C[C@@H]2CC[C@@H](OC(=O)C[n+]3csc(C)c3C)[C@H](OC)C2)CC(=O)[C@H](C)/C=C(\C)[C@@H](OC(=O)C[n+]2csc(C)c2C)[C@@H](OC)C(=O)[C@H](C)C[C@H](C)/C=C/C=C/C=C/1C.[Br-].[Br-]` [Example 4, 31,42-O-carbonylmethyl-(4,5-dimethyl-thiazole bromide salt-3-yl)-rapamycin] gave a solubility of 100 mg/mL. Besides, the IC50 in data set [2] is less than 0.046 µM; in the data set with tumor cell A549 it was 6.23 µM.
As for `CO[C@H]1C[C@@H]2CC[C@@H](C)[C@@](O)(O2)C(=O)C(=O)N2CCCC[C@H]2C(=O)O[C@H]([C@H](C)C[C@@H]2CC[C@@H](OC(=O)C[n+]3ccccc3)[C@H](OC)C2)CC(=O)[C@H](C)/C=C(\C)[C@@H](O)[C@@H](OC)C(=O)[C@H](C)C[C@H](C)/C=C/C=C/C=C/1C.[Br-]` [Example 10, 42-O-carbonylmethyl-(pyridine bromide salt-1-yl)-rapamycin], the melting point lay within 135 to 137 °C. Further, the IC50 in data set [2] was determined as 10.9 µM. In the data set with tumor cell A549, this compound had an IC50 of 66.3 µM.
The like results for `CO[C@H]1C[C@@H]2CC[C@@H](C)[C@@](O)(O2)C(=O)C(=O)N2CCCC[C@H]2C(=O)O[C@H]([C@H](C)C[C@@H]2CC[C@@H](OC(=O)C[n+]3cscc3C)[C@H](OC)C2)CC(=O)[C@H](C)/C=C(\C)[C@@H](O)[C@@H](OC)C(=O)[C@H](C)C[C@H](C)/C=C/C=C/C=C/1C.[Br-]` [Example 2, 42-O-carbonylmethyl-(4-methyl-thiazole bromide salt-3-yl)-rapamycin] were, in that order, 130 to 133 °C, less than 0.046 µM and 19.3 µM.
For the compound `CO[C@H]1C[C@@H]2CC[C@@H](C)[C@@](O)(O2)C(=O)C(=O)N2CCCC[C@H]2C(=O)O[C@H]([C@H](C)C[C@@H]2CC[C@@H](OC(=O)C[n+]3csc(C)c3C)[C@H](OC)C2)CC(=O)[C@H](C)/C=C(\C)[C@@H](O)[C@@H](OC)C(=O)[C@H](C)C[C@H](C)/C=C/C=C/C=C/1C` [Example 5, 42-O-carbonylmethyl-(4,5-dimethyl-thiazole bromide salt-3-yl)-rapamycin], the values for the IC50 (in data set [2]; in the data set on tumor cell A549) were less than 0.046 µM and 7.4 µM, respectively.
